Patent publication US8158789B2, “Arginine derivatives with NP-I antagonistic activity” (Ark Therapeutics Group Ltd., priority 2006, dated 2012)

Biological target: T1, neuropilin-1 (NP-1) (Homo sapiens, UniProt O14786)
T1 construct: expressed in transfected cells; host or cells: porcine aortic endothelial cells (PAE/NP-1), hygromycin B selection
Test: 125I-VEGF-A165 binding
Settings: assay not given; 125I-VEGF-A165 binding is the only concentration-response binding method described
Description: Porcine aortic endothelial cells expressing neuropilin-1 (PAE/NP-1) were cultured in Ham's F12 medium containing 10% fetal bovine serum (FBS) and 25 μg/ml hygromycin B. PAE cells expressing KDR (PAE/KDR) were grown in Ham's F12 medium containing 10% FBS and 250 μg/ml […] G418. Human carcinoma cell lines (DU145, A549 and ACHN) were grown in RPMI 1640 medium containing 10% FBS and L-glutamine.
Confluent cells in 24-well plates were washed twice with phosphate-buffered saline (PBS). At 4° C. various concentrations of peptides or peptidomimetics diluted in binding medium (Dulbecco's modified Eagle's medium, 25 mM HEPES pH 7.3 containing 0.1% BSA) were added, followed by addition of 0.1 nM of ^125I-VEGF-A165 (1200-1800 Ci/mmol, GE Healthcare). After 2 h of incubation at 4° C., the medium was aspirated and washed 4 times with cold PBS. The cells were lysed with 0.25 M NaOH, 0.5% SDS solution, and the bound radioactivity of the lysates was measured in a γ counter. Non-specific binding was determined in the presence of 100-fold excess unlabelled VEGF-A165.

T1 sequence (O14786 22-923): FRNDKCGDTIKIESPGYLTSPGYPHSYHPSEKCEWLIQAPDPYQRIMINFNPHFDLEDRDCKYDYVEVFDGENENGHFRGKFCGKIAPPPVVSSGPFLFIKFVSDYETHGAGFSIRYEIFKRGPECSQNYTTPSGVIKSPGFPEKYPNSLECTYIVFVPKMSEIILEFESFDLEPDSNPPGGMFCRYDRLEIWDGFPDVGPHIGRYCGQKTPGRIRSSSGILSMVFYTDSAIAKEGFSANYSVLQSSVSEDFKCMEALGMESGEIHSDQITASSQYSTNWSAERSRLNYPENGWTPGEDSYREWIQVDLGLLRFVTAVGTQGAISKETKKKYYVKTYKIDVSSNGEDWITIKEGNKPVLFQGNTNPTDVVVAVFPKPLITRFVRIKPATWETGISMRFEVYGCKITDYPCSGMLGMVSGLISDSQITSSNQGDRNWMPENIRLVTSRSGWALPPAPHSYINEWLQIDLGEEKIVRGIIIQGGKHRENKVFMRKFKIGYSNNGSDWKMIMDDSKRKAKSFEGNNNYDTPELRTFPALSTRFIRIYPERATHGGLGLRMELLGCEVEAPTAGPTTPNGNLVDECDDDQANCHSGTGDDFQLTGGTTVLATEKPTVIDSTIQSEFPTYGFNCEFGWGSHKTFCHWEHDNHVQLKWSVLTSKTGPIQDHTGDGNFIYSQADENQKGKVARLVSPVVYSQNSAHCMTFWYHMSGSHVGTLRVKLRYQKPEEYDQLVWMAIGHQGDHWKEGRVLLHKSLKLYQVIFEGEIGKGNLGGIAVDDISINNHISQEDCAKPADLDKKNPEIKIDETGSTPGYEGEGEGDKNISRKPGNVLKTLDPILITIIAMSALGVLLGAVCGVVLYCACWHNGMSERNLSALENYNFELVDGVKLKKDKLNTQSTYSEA

Structure (SMILES)	IC50 [µM]
Cc1noc(C)c1CNc1cccc(S(=O)(=O)Nc2ccsc2C(=O)N[C@@H](CCCNC(=N)N)C(=O)O)c1 [EG00317, (S)-2-[(3-{3-[(3,5-Dimethyl-isoxazol-4-ylmethyl)-amino]-benzenesulfonyl-amino}-thiophene-2-carbonyl)-amino]-5-guanidino-pentanoic acid]	< 20
N=C(N)NCCC[C@H](NC(=O)c1sccc1NS(=O)(=O)c1cccc(CCc2cccnc2)c1)C(=O)O [EG00323, (S)-5-Guanidino-2-({3-[3-(2-pyridin-3-yl-ethyl)-benzenesulfonylamino]-thiophene-2-carbonyl}-amino)-pentanoic acid]	< 20
CN1CCOc2cc(-c3cc4c(c(S(=O)(=O)Nc5ccsc5C(=O)N[C@@H](CCCNC(=N)N)C(=O)O)c3)OCC4)cnc21 [EG00475, (S)-5-Guanidino-2-({3-[5-(4-methyl-3,4-dihydro-2H-pyrido[3,2-b][1,4]oxazin-7-yl)-2,3-dihydro-benzofuran-7-sulfonylamino]-thiophene-2-carbonyl}-amino)-pentanoic acid]	< 20
N=C(N)NCCC[C@H](NC(=O)c1sccc1NS(=O)(=O)c1cc(Br)cc2c1OCC2)C(=O)O [EG00299, (S)-2-{[3-(5-Bromo-2,3-dihydro-benzofuran-7-sulfonylamino)-thiophene-2-carbonyl]-amino}-5-guanidino-pentanoic acid]	< 20
N=C(N)NCCC[C@H](NC(=O)c1sccc1NS(=O)(=O)c1ccccc1N)C(=O)O [EG00225, (S)-2-{[3-(2-Amino-benzenesulfonylamino)-thiophene-2-carbonyl]-amino}-5-guanidino-pentanoic acid]	< 20
Cc1cc(CNc2cccc(S(=O)(=O)Nc3ccsc3C(=O)N[C@@H](CCCNC(=N)N)C(=O)O)c2)n(C)n1 [EG00316, (S)-2-[(3-{3-[(2,5-Dimethyl-2H-pyrazol-3-ylmethyl)-amino]-benzenesulfonyl-amino}-thiophene-2-carbonyl)-amino]-5-guanidino-pentanoic acid]	< 20
N=C(N)NCCC[C@H](NC(=O)c1sccc1NS(=O)(=O)c1cc2ccccc2s1)C(=O)O [EG00291, (S)-2-{[3-(Benzo[b]thiophene-2-sulfonylamino)-thiophene-2-carbonyl]-amino}-5-guanidino-pentanoic acid]	< 20
N=C(N)NCCC[C@H](NC(=O)c1sccc1NS(=O)(=O)c1cccc(C#CCN)c1)C(=O)O [EG00274, (S)-2-({3-[3-(3-Amino-prop-1-ynyl)-benzenesulfonylamino]-thiophene-2-carbonyl}-amino)-5-guanidino-pentanoic acid]	< 20
Cc1nn(C)c(Cl)c1CNc1cccc(S(=O)(=O)Nc2ccsc2C(=O)N[C@@H](CCCNC(=N)N)C(=O)O)c1 [EG00280, (S)-2-[(3-{3-[(5-Chloro-1,3-dimethyl-1H-pyrazol-4-ylmethyl)-amino]-benzenesulfonylamino}-thiophene-2-carbonyl)-amino]-5-guanidino-pentanoic acid]	< 20
Cc1nn(-c2ccccc2)c(Cl)c1CNc1cccc(S(=O)(=O)Nc2ccsc2C(=O)N[C@@H](CCCNC(=N)N)C(=O)O)c1 [EG00318, (S)-2-[(3-{3-[(5-Chloro-3-methyl-1-phenyl-1H-pyrazol-4-ylmethyl)-amino]-benzenesulfonylamino]-thiophene-2-carbonyl)-amino]-5-guanidino-pentanoic acid]	< 20
CC(=O)Nc1ccc(S(=O)(=O)Nc2ccsc2C(=O)N[C@@H](CCCNC(=N)N)C(=O)O)cc1 [EG00203, (S)-2-{[3-(4-Acetylamino-benzenesulfonylamino)-thiophene-2-carbonyl]-amino}-5-guanidino-pentanoic acid]	< 20
Cc1nc(S(=O)(=O)Nc2ccsc2C(=O)N[C@@H](CCCNC(=N)N)C(=O)O)cn1C [EG00265, (S)-2-{[3-(1,2-Dimethyl-1H-imidazole-4-sulfonylamino)-thiophene-2-carbonyl]-amino}-5-guanidino-pentanoic acid]	< 20
N=C(N)NCCC[C@H](NC(=O)c1sccc1NS(=O)(=O)c1cccc(CCCN)c1)C(=O)O [EG00369, (S)-2-({3-[3-(3-Amino-propyl)-benzenesulfonylamino]-thiophene-2-carbonyl}-amino)-5-guanidino-pentanoic acid]	< 20
Cn1nc(CNc2cccc(S(=O)(=O)Nc3ccsc3C(=O)N[C@@H](CCCNC(=N)N)C(=O)O)c2)c2ccccc21 [EG00319, (S)-5-Guanidino-2-[(3-{3-[(1-methyl-1H-indazol-3-ylmethyl)-amino]-benzenesulfonylamino}-thiophene-2-carbonyl)-amino]-pentanoic acid]	< 20
N=C(N)NCCC[C@H](NC(=O)c1sccc1NS(=O)(=O)c1cccc2nonc12)C(=O)O [EG00288, (S)-2-{[3-(Benzo[1,2,5]oxadiazole-4-sulfonylamino)-thiophene-2-carbonyl]-amino}-5-guanidino-pentanoic acid]	< 20
N=C(N)NCCC[C@H](NC(=O)c1sccc1NS(=O)(=O)c1ccccc1[N+](=O)[O-])C(=O)O [EG00224, (S)-5-Guanidino-2-{[3-(2-nitro-benzenesulfonylamino)-thiophene-2-carbonyl]-amino}-pentanoic acid]	< 20
Cc1nc(CNc2cccc(S(=O)(=O)Nc3ccsc3C(=O)N[C@@H](CCCNC(=N)N)C(=O)O)c2)c(C)o1 [EG00332, (S)-2-[(3-{3-[(2,5-Dimethyl-oxazol-4-ylmethyl)-amino]-benzenesulfonylamino}-thiophene-2-carbonyl)-amino]-5-guanidino-pentanoic acid]	< 20
Cc1ccc2nsnc2c1S(=O)(=O)Nc1ccsc1C(=O)N[C@@H](CCCNC(=N)N)C(=O)O [EG00264, (S)-2-{[3-(5-Methyl-benzo[1,2,5]thiadiazole-5-methyl-4-sulfonylamino)-thiophene-2-carbonyl]-amino}-5-guanidino-pentanoic acid]	< 20
N=C(N)NCCC[C@H](NC(=O)c1sccc1NS(=O)(=O)c1cccc(NCc2ccccn2)c1)C(=O)O [EG00283, (S)-5-Guanidino-2-[(3-{3-[(pyridin-2-ylmethyl)-amino]-benzenesulfonylamino}-thiophene-2-carbonyl)-amino]-pentanoic acid]	< 20
N=C(N)NC(=O)CC[C@H](NC(=O)c1sccc1NS(=O)(=O)c1ccccc1[N+](=O)[O-])C(=O)O [EG00285, (S)-5-Guanidino-2-{[3-(2-nitro-benzenesulfonylamino)-thiophene-2-carbonyl]-amino}-5-oxo-pentanoic acid]	< 20
N=C(N)NCCC[C@H](NC(=O)c1sccc1NS(=O)(=O)c1cccc(N)c1)C(=O)O [EG00174, (S)-2-{[3-(3-Amino-benzenesulfonylamino)-thiophene-2-carbonyl]-amino}-5-guanidino-pentanoic acid]	< 20
N=C(N)NCCC[C@H](NC(=O)c1sccc1NS(=O)(=O)c1cc2ccccc2o1)C(=O)O [EG00287, (S)-2-{[3-(Benzofuran-2-sulfonylamino)-thiophene-2-carbonyl]-amino}-5-guanidino-pentanoic acid]	< 20
Cc1noc(C)c1-c1cc2c(c(S(=O)(=O)Nc3ccsc3C(=O)N[C@@H](CCCNC(=N)N)C(=O)O)c1)OCC2 [EG00428, (S)-2-({3-[5-(3,5-Dimethyl-isoxazol-4-yl)-2,3-dihydro-benzofuran-7-sulfonyl-amino]-thiophene-2-carbonyl}-amino)-5-guanidino-pentanoic acid]	< 20
